The values that follow come from patent US11147746B2, “Hydrophobic dental surfaces” (priority 2016, dated 2021).

Data set [1] can be described thus: Water contact angle (sessile drop) on peptide-coated dentin. The format is physicochemical. The source says:
The water contact angle (WCA) may be measured using the sessile drop method with deionized water as probe liquid. The sessile drop is the most common method for optical measurement of the contact angle using drop shape analysis. Measurement of the contact angle of a sessile drop that lies on the surface of a solid may be made with a contact angle goniometer, which allows measuring the contact angle visually by capturing the profile of a pure liquid on a solid substrate. The angle formed between the liquid-solid interface and the liquid-vapor interface is determined to be the water contact angle. A droplet is deposited by a syringe which is positioned above the sample surface, and a high-resolution camera may be used to capture the image from the profile or side view. The image may be analyzed using image analysis software. The measurement may be referred to as a static contact angle measurement. The change in WCA, or ΔWCA, is the difference between the average water contact angles after predetermined intervals of time, for example, 1 s and 21 s of drop contact with the tested surface, or the difference between the initial and the final water contact angles.
Water contact angles described according to the disclosure are with reference to the sessile drop technique, using a drop volume or 2-5 μL, for example, 3 μL. Similar or different values of WCA and ΔWCA for the same tested surfaces may be obtained using other methods to determine wettability of surfaces, such as the Wilhelmy method, or when using different drop volumes. In some examples, one or more of these or other techniques may be used to determine the WCA or ΔWCA.
The wettability of coated etched dentin with these peptides was evaluated in different conditions, for example, single or double GL13K coatings, rinsing with water or alcohol after coating, after deproteinization, with blow drying, alcohol drying, combinations of the two, or progressive alcohol drying after dentin etching, and using the same buffer solutions with or without peptides. Dynamic water contact angles (WCA) of water drops placed on the treated dentin surfaces were measured.
A drop of 3 μL of deionized water was dispensed using a contact angle meter (DCM-E1, Kyowa, Japan) on top of the dentin surfaces with and without treatments. Images of the drop were automatically taken with the camera of the contact angle meter every second for 21 s; i.e., until the shape of the drop on the surface was stable for all surfaces analyzed. The shape of the profile of the drop on the surface was then automatically identified by the equipment's software (Famas, Kyowa, Japan) and the contact angle between the liquid-solid interface and the liquid-vapor interface was determined. The reported WCA are average values at the end of the test; i.e., after 21 s the drop was in contact with the tested surface for at least 3 different drops in three different surfaces for each dentin treatment. ΔWCA is the difference between the average water contact angles after 1 s and 21 s of drop contact with the tested surface; i.e., the difference between the initial and the final water contact angles.
A de-proteinization step was used to remove demineralized/exposed collagen. […] A super-hydrophobic GL13K-coated dentin surface with water contact angles up to 100 was produced.

Data set [2] in a line: Saliva (enzyme) challenge of coated dentin, then WCA and acidic dye penetration. On the set-up: species or system bovine. The conditions noted are these: saliva at 37° C. for three consecutive days. As to the method: Peptide-coated dentin samples were challenged with saliva, which includes enzymes. Bovine dentin slabs, prepared as discussed above with reference to EXAMPLE 2, were incubated in freshly collected and filtered saliva (thus exposed to biodegrading enzymes) at 37° C. for three consecutive days. The WCA was subsequently measured, and the samples were further immersed in acidic blue dye for 4 h. GL13K-coated dentin retained its hydrophobic character after the challenge, with average WCA=105°. FIG. 7A is a photograph showing a transverse cross-section of a tooth slab including enamel and dentin and treated with a buffer solution, exposed to saliva for three days, and subjected to an acidic blue dye.

The mark [3] stands for this setting: dentin prepared with the deproteinized method, then coated (samples S12, S14, S16).
Where [4] appears, read: progressive dehydration protocol (increasing ethanol concentrations).

No end group written: not given here.

For the sequence GKIIKLKASLKLL [GL13K], the WCA in data set [1] (setting [3]) stood at 85 °; in data set [1] (setting [4]) it was 120 °; in data set [1] (single coating on etched dentin, alcohol rinse and blow drying), 55 °; in data set [1] (single coating on etched dentin, water rinse and blow drying), 70 °; in data set [1] (two coating treatments, rinsing with alcohol), 100 °. Also, the water contact angles result in data set [1] (etching, wet de-proteinization with 5% NaOCl, coating without alcohol dehydration (Example 8)) is “up to 100”. Also, the ΔWCA in data set [1] (setting [4]) is reported as 4 °. Further, the “variation of water contact angle over time” value in data set [1] (with respect to the etched dentin) is reported as “significantly reduced”. For the same sequence, the “average WCA after saliva challenge” value in data set [2] was found to be 105 °.

For VRLIVAVRIWRR [Sample 1018], the WCA in data set [1] (setting [3]) came to 84 °.
